Experimental data published in patent US20180037595A1, “BENZOXABOROLE COMPOUNDS AND USES THEREOF” (GLAXOSMITHKLINE INTELLECTUAL PROPERTY (NO.2) LIMITED, priority 2015, published 2018).
≈ marks a conversion by molar mass, not a printed value. Where a name gives a salt, the structure may show the parent alone. Read-outs that look alike come from different tables or passages of the source.

Legend:
[1] = target: Mtb LeuRS (Mycobacterium tuberculosis, UniProt P9WFV1); assay: LeuRS aminoacylation assay, IC50 determination; type: biochemical, M. tuberculosis; conditions: read-out: Mtb LeuRS IC50
Protocol: For biochemical analyses an N-terminal six histidine-tagged LeuRS was over-expressed in Escherichia coli which were E. coli codon-optimised (GenScript, Piscataway N.J., USA), from human mitochondria and cytoplasm, and M. tuberculosis. N-terminal six histidine-tagged LeuRS proteins were over-expressed and purified according to Novagen (Madison, Wis., USA) using an E. coli BL21(DE3) T7 RNA polymerase over-expression strain.
Experiments were performed in 96-well microtiter plates, using 80 μL reaction mixtures containing 50 mM HEPES-KOH (pH 8.0), 30 mM MgCl2 30 mM KCl, 13 μM L-[^14C]leucine (306 mCi/mmol, Perkin-Elmer), 15 uM total E. coli tRNA (Roche, Switzerland), 0.02% (w/v) BSA, 1 mM DTT, 0.2 μM LeuRS and 4 mM ATP at 30° C. Reactions were started by the addition of 4 mM ATP. After 7 minutes, reactions were quenched and tRNA was precipitated by the addition of 50 μL of 10% (w/v) TCA and transferred to 96-well nitrocellulose membrane filter plates (Millipore Multiscreen HTS, MSHAN4B50). Each well was then washed three times with 100 μL of 5% TCA. Filter plates were then dried under a heat lamp and the precipitated L-[^14C]leucine tRNALeu were quantified by liquid scintillation counting using a Wallac MicroBeta Trilux model 1450 liquid scintillation counter (PerkinElmer, Waltham, Mass., USA). The only difference was with the human cytoplasmic LeuRS when we used tRNA isolated from Brewer's Yeast (Roche Diagnostics GmbH).
Reactions were initiated by the addition of 4 mM ATP. Reactions were stopped after 7 minutes then precipitated and counted to quantify radioactivity. IC50 values were determined using the Graphpad Prism software package (Graphpad Software Inc. (La Jolla, Calif., USA).

[2] = system: M. tuberculosis standard strain Mtb H37Rv; assay: MIC determination against mycobacteria (resazurin microtiter assay); type: cell-based, Mycobacterium tuberculosis; conditions: for Selectivity Index (A/B): HepG2 cell 48 h Tox50 (A) / Mtb H37Rv MIC (B); for MIC: Mycobacterium tuberculosis, H37RV, read-out: Mtb H37Rv MIC (B)
[3] = system: HepG2 cells; assay: HepG2 cytotoxicity assay (resazurin); type: cell-based
[4] = system: E. coli K12 tolC::Tn10; assay: General antimicrobial activity assay (CLSI broth microdilution); type: cell-based; conditions: Escherichia coli, read-out: MIC: E. coli K12 tolC::Tn10
Protocol: (§1) Whole-cell antimicrobial activity was determined by broth microdilution using the Clinical and Laboratory Standards Institute (CLSI) recommended procedure, Document M7-A7, “Methods for Dilution Susceptibility Tests for Bacteria that Grow Aerobically”.

[5] = system: A. baumannii ATCC 17978; assay: as above; type: cell-based; conditions: Acinetobacter baumannii, ATCC17978, read-out: MIC: A. baumannii ATCC 17978
Protocol: as §1

[6] = system: E. coli K12; assay: as above; type: cell-based; conditions: Escherichia coli, K12, read-out: MIC: E. coli K12
Protocol: as §1

[7] = system: P. aeruginosa PA01; assay: as above; type: cell-based; conditions: Pseudomonas aeruginosa, PA01, read-out: MIC: P. aeruginosa PA01
Protocol: as §1

[8] = target: Human cyto LeuRS (Homo sapiens, UniProt Q9P2J5); assay: LeuRS aminoacylation assay, IC50 determination; type: biochemical
[9] = Homo sapiens, HepG2, 48 h, read-out: HepG2 cell 48 h Tox50 (A)

Mtb LeuRS, sequence (P9WFV1 whole entry): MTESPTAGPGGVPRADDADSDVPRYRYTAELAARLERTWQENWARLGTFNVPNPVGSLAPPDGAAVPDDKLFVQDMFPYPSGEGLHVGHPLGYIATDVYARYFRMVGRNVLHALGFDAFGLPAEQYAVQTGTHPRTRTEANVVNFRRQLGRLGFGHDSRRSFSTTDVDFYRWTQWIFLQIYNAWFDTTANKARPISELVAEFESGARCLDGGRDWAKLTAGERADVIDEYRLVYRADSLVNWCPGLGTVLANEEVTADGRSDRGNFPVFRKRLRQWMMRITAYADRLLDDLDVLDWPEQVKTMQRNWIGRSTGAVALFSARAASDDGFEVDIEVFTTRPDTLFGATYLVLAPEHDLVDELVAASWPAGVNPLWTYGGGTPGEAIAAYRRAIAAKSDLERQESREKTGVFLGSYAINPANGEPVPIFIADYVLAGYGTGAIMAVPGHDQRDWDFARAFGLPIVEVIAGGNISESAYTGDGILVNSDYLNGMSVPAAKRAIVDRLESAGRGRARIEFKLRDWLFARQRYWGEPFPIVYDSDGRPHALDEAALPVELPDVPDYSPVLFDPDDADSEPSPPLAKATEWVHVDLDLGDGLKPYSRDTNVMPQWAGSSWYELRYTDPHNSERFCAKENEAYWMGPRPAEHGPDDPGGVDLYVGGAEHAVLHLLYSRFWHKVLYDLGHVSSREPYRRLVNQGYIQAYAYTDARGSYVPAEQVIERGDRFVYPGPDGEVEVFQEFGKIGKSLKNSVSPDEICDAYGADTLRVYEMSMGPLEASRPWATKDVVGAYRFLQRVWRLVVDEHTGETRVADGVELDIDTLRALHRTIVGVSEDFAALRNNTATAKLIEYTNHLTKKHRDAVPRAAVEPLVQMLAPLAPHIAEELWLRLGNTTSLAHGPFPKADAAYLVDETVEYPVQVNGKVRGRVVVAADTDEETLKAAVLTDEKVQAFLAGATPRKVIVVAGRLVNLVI
Human cyto LeuRS, sequence (Q9P2J5 whole entry): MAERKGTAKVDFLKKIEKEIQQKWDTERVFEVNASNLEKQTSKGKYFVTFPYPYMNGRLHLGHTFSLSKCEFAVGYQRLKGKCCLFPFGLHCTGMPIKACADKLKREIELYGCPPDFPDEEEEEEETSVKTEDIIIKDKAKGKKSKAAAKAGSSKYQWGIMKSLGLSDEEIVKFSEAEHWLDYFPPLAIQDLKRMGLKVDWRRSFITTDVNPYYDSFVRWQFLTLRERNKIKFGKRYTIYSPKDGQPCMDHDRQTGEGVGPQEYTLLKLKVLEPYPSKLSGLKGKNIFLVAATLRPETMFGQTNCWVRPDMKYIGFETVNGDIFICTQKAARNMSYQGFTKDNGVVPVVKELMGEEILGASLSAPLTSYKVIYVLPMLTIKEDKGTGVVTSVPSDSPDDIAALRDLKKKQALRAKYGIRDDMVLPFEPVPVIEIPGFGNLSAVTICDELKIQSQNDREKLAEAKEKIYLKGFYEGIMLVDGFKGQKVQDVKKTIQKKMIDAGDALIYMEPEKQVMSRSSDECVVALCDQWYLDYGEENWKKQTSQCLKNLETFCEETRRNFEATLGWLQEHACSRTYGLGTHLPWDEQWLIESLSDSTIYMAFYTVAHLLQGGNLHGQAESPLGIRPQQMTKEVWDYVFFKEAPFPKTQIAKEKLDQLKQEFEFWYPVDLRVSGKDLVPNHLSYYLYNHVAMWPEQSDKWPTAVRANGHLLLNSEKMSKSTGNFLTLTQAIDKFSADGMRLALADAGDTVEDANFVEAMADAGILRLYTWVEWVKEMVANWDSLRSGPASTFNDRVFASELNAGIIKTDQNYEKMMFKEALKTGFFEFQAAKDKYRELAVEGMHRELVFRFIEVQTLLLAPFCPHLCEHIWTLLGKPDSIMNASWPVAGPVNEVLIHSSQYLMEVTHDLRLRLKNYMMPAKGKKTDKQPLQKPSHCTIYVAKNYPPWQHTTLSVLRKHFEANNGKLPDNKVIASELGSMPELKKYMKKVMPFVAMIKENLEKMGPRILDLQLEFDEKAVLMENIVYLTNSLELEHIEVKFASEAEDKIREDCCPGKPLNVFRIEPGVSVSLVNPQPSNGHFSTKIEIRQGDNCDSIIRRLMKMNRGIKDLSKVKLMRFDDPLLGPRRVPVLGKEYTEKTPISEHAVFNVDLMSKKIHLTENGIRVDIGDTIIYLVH

Row | Compound | IC50 [1] | Selectivity Index (A/B) [2] | IC50 [3, 9] | MIC [2] | MIC [4] | MIC [5] | MIC [6] | MIC [7] | further results
1 | CC1(C)COB2OC(CN)c3c(Cl)ccc(c32)O1 (centres unmarked) [Example C9-Cl, reference compound] | 37.6 µM | >10 | > 50 µM |  |  |  |  |  | Selectivity Index (A/B) ([2]; listed as C9-CI): 10
2 | CC1(C)COc2ccc(Cl)c3c2B(O[C@@H]3CN)O1.Cl [Example 12, (S)-(3-chloro-8,8-dimethyl-7,8-dihydro-2H-1,6,9-trioxa-9a-borabenzo[cd]azulen-2-yl)methanamine hydrochloride] | 0.78 µM |  | 322 µM | 0.08 µM | > 64 µg/mL | > 64 µg/mL | > 64 µg/mL | > 64 µg/mL | IC50 [8]: > 300 µM
3 | C[C@]1(CO)COc2ccc(Cl)c3c2B(OC3CN)O1 (stereo partly drawn) [Example 15, ((2S,8S, or 2R,8R)-2-(aminomethyl)-3-chloro-8-methyl-7,8-dihydro-2H-1,6,9-trioxa-9a-borabenzo[cd]azulen-8-yl)methanol] | 3.13 µM | >50 | > 50 µM | 0.93 µM (≈ 0.264 µg/mL) |  |  |  |  | 
4 | Cl.NCC1OB2OCCOc3ccc(Cl)c1c32 (racemic) [Example 3] |  |  |  |  | > 64 µg/mL | > 64 µg/mL | > 64 µg/mL | > 64 µg/mL | Selectivity Index (A/B) ([2]; listed as EXAMPLE 3 G3-Br, hydrochloride): >106; Selectivity Index (A/B) ([2]; listed as Example 3 G3-CI, hydrochloride): > 106
5 | CC1COc2cccc3c2B(O1)OC3CN (centres unmarked) [Example C11-H, reference compound] | 0.51 µM | >32 | > 50 µM |  | 2 µg/mL (≈ 9.13 µM) | 4 µg/mL (≈ 18.3 µM) | 2 µg/mL (≈ 9.13 µM) | 2 µg/mL (≈ 9.13 µM) | 
6 | CC1COc2c(Cl)cc(Cl)c3c2B(O1)OC3CN (centres unmarked) [Example C7-Cl2, reference compound] | 7.97 µM | >20 | > 50 µM |  |  |  |  |  | 
7 | Cl.NCC1OB2OCCOc3ccc(Br)c1c32 (racemic) [Example 1] |  |  |  |  | > 64 µg/mL | > 64 µg/mL | > 64 µg/mL | > 64 µg/mL | Selectivity Index (A/B) ([2]; listed as EXAMPLE 1 G1-Br, hydrochloride): >277; Selectivity Index (A/B) ([2]; listed as Example 1 G1-Br, hydrochloride): > 277
8 | NC[C@H]1OB2OCCOc3c(Cl)ccc1c32 [Example C13-Cl, reference compound] |  | >10 | > 50 µM |  |  |  |  |  | 
9 | Cl.NC[C@H]1OB2O[C@H](CO)COc3ccc(F)c1c32 [Example 13, ((2S,8R)-2-(aminomethyl)-3-fluoro-7,8-dihydro-2H-1,6,9-trioxa-9a-borabenzo[cd]azulen-8-yl)methanol hydrochloride] | 0.48 µM | >10 | > 50 µM | 0.55 µM |  |  |  |  | 
10 | NC[C@H]1OB2OCCOc3c(Cl)cc(Cl)c1c32 [Example C14-Cl2, reference compound] | 4.67 µM | >10 | > 50 µM | > 5 µM |  |  |  |  | 
11 | NCCOc1cccc2c1B(O)OC2 [Example C3-H, reference compound] | 17.6 µM | >0.8 |  |  |  |  |  |  | IC50 [8]: 35.7 µM; IC50 ([3]; Homo sapiens, HepG2, 48 h; read-out: HepG2 cell 48 h Tox50 (A)): > 50 µM
12 | Cl.NCC1OB2OCCOc3ccc(F)c1c32 (centres unmarked) [Example 5] |  |  |  |  | 64 µg/mL | > 64 µg/mL | 32 µg/mL | 4 µg/mL | 
13 | Cl.NCC1OB2OCCOc3ccc(Br)c1c32 (racemic) [Example 1, 3-bromo-7,8-dihydro-2H-1,6,9-trioxa-9a-borabenzo[cd]azulen-2-yl)methanamine hydrochloride] | 0.154 µM |  | > 50 µM | 0.18 µM |  |  |  |  | 
14 | CC1COc2ccc(Cl)c3c2B(O1)OC3CN.Cl (centres unmarked) [Example 7, (3-chloro-8-methyl-7,8-dihydro-2H-1,6,9-trioxa-9a-borabenzo[cd]azulen-2-yl)methanamine hydrochloride] | 1.08 µM | >250 | > 50 µM | 0.2 µM | > 64 µg/mL | > 64 µg/mL | > 64 µg/mL | > 64 µg/mL | IC50 [8]: > 300 µM
15 | CC1(C)COc2ccc(Cl)c3c2B(OC3CN)O1.Cl (centres unmarked) [Example 11, (3-chloro-8,8-dimethyl-7,8-dihydro-2H-1,6,9-trioxa-9a-borabenzo[cd]azulen-2-yl)methanamine hydrochloride] | 0.68 µM |  | > 50 µM | 0.27 µM | > 64 µg/mL | > 64 µg/mL | > 64 µg/mL | > 64 µg/mL | Selectivity Index (A/B) ([2]; listed as EXAMPLE 11 G11-Cl, hydrochloride): >185; Selectivity Index (A/B) ([2]; listed as Example 11 G11-CI, hydrochloride): > 185; IC50 [8]: > 300 µM
16 | NC[C@H]1OB2OCCOc3ccc(I)c1c32 [Example 6, (S)-(3-iodo-7,8-dihydro-2H-1,6,9-trioxa-9a-borabenzo[cd]azulen-2-yl)methanamine hydrochloride] | 0.33 µM |  | 36.4 µM | 0.3 µM |  |  |  |  | 
17 | C[C@@]1(CO)COc2ccc(Cl)c3c2B(OC3CN)O1 (single isomer, unassigned) [Example 14, ((2S,8R or 2R,8S)-2-(aminomethyl)-3-chloro-8-methyl-7,8-dihydro-2H-1,6,9-trioxa-9a-borabenzo[cd]azulen-8-yl)methanol] | 4.17 µM | >4 | > 50 µM | 1.25 µM (≈ 0.354 µg/mL) |  |  |  |  | 
18 | c1cc2c3c(c1)OCCOB3OC2 [Example C1-H, reference compound] | 12.2 µM |  |  |  |  |  |  |  | IC50 [8]: 101 µM
19 | C[C@@]1(CO)COc2ccc(Br)c3c2B(OC3CN)O1 (stereo partly drawn) [Example 16, ((2S,8R, or 2R,8S)-2-(aminomethyl)-3-bromo-8-methyl-7,8-dihydro-2H-1,6,9-trioxa-9a-borabenzo[cd]azulen-8-yl)methanol] | 2.69 µM | >40 | > 50 µM | 1.25 µM (≈ 0.41 µg/mL) |  |  |  |  | 
20 | C[C@]1(CO)COc2ccc(Br)c3c2B(O[C@@H]3CN)O1 [Example 17, ((2S,8S, or 2R,8R)-2-(aminomethyl)-3-bromo-8-methyl-7,8-dihydro-2H-1,6,9-trioxa-9a-borabenzo[cd]azulen-8-yl)methanol] | 1.97 µM | >50 | > 50 µM | 0.925 µM (≈ 0.303 µg/mL) |  |  |  |  | 
21 | Cl.NCC1OB2OCCOc3ccc(Cl)c1c32 (racemic) [Example 3, 3-chloro-7,8-dihydro-2H-1,6,9-trioxa-9a-borabenzo[cd]azulen-2-yl)methanamine hydrochloride] | 0.244 µM |  | > 50 µM | 0.47 µM |  |  |  |  | 
22 | CC1(C)COc2c(Cl)ccc3c2B(OC3CN)O1 (centres unmarked) [Example C8-Cl, reference compound] | 6.05 µM | 10 | > 50 µM | > 5 µM |  |  |  |  | 
23 | CC1(C)COc2cccc3c2B(OC3CN)O1 (centres unmarked) [Example C12-H, reference compound] | 1.33 µM | >4.9 | 24.5 µM | > 5 µM | 2 µg/mL (≈ 8.58 µM) | 4 µg/mL (≈ 17.2 µM) | 4 µg/mL (≈ 17.2 µM) | 16 µg/mL (≈ 68.6 µM) | 
24 | CC1(C)COB2OC(CN)c3cccc(c32)O1 (centres unmarked) [Example C10-H, reference compound] | > 300 µM |  | > 50 µM | > 5 µM |  |  |  |  | 
25 | Cl.NCC1OB2OCCOc3ccc(F)c1c32 (centres unmarked) [Example 5, (3-fluoro-7,8-dihydro-2H-1,6,9-trioxa-9a-borabenzo[cd]azulen-2-yl)methanamine hydrochloride)] | 0.46 µM |  | 49.1 µM | 0.6 µM |  |  |  |  | 
